The values below come from patent publication US5627206A, “Tricyclic inhibitor of matrix metalloproteinases” (Warner-Lambert Company, priority 1995, dated 1997).

The target of data set [1] is T1, GCD (recombinant gelatinase A catalytic domain) (Homo sapiens, UniProt P08253).
T1 construct: propeptide, C-terminal domain and fibronectin-like insert removed; E. coli host likely
T1 sequence (P08253 110-660): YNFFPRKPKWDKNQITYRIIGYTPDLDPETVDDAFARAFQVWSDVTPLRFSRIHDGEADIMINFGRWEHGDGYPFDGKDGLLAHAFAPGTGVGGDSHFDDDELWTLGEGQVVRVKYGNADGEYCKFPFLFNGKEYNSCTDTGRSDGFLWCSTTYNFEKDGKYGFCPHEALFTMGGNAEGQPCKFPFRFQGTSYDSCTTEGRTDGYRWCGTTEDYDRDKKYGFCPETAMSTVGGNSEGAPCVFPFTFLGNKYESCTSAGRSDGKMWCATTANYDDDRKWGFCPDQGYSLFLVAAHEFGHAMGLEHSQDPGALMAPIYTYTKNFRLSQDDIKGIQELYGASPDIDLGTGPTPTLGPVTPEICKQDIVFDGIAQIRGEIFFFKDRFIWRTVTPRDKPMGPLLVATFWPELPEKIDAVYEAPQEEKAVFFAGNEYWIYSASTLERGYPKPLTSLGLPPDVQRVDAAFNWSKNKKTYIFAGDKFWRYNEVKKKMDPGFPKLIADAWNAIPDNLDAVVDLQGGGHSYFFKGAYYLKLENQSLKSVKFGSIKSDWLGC
Description: Inhibition of GCD (recombinant gelatinase A catalytic domain), thiopeptolide substrate. The data set is classed as biochemical. Conditions: thiopeptolide substrate Ac-Pro-Leu-Gly-thioester-Leu-Leu-Gly-OEt. An excerpt:
Matrix metalloproteinases share high sequence homology and the catalytic domains of each of the MMPs can be identified by sequence alignment. The gene for the catalytic domain of stromelysin-1, SCD, was constructed by removing the propeptide and C-terminal domain (Ye Q.-Z., Johnson L.L, Hupe D.J., and Baragi V., "Purification and Characterization of the Human Stromelysin Catalytic Domain Expressed in Escherichia coli", Biochemistry,1992;31:11231-11235). The gelatinase A catalytic domain, GCD, was similarly constructed with the additional removal of the fibronectin-like insert which interrupts the catalytic domain (Ye Q.-Z., Johnson L.L, Yu A.E., and Hupe D., "Reconstructed 19 kDa Catalytic Domain of Gelatinase A is an Active Proteinase", Biochemistry, 1995;34:4702-4708). Both truncated proteins cleave synthetic peptide substrates and the natural substrates proteoglycan and gelatin in a manner similar to the full-length enzymes and can be used to identify matrix metalloproteinase inhibitors.
Experiments were carried out with both the full-length enzymes and the catalytic domains. […] IC50 values were determined using a thiopeptolide substrate, Ac-Pro-Leu-Gly-thioester-Leu-Leu-Gly-OEt (Ye Q.-Z., Johnson L.L., Hupe D.J., and Baragi V., "Purification and Characterization of the Human Stromelysin Catalytic Domain Expressed in Escherichia coli", Biochemistry,1992;31:11231-11235). […]

The target in data set [2] is T2, collagenase (full-length native enzyme) (Homo sapiens, UniProt P03956).
T2 construct: collagenase (full-length native enzyme)
T2 sequence (P03956 100-469): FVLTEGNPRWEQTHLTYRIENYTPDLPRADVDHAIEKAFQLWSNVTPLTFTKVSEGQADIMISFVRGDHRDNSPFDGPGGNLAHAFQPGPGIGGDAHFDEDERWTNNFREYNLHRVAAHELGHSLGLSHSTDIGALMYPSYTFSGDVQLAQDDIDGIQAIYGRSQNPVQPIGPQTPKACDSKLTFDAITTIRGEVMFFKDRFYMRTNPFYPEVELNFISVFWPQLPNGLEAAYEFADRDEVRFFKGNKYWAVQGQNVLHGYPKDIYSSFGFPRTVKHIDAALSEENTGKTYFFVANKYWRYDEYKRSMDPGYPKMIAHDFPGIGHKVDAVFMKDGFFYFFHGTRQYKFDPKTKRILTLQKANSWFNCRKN
The experiment in a line: Inhibition of collagenase (full-length native enzyme), thiopeptolide substrate. The data set is classed as biochemical. The procedure:
Experiments were carried out with both the full-length enzymes and the catalytic domains. […] IC50 values were determined using a thiopeptolide substrate, Ac-Pro-Leu-Gly-thioester-Leu-Leu-Gly-OEt (Ye Q.-Z., Johnson L.L., Hupe D.J., and Baragi V., "Purification and Characterization of the Human Stromelysin Catalytic Domain Expressed in Escherichia coli", Biochemistry,1992;31:11231-11235). […] IC50 values for gelatinase B, and collagenase, were >100 μM.

The test system of data set [3] is EAE Rats. The experiment in a line: EAE Lewis rat acute model, Protocol 1 (daily oral dosing Day 0-14). The data set is classed as in vivo. The procedure:
(§1) Female Lewis rats were purchased from Harlan Sprague-Dawley (Indianapolis, IN) and were used at 8 to 10 weeks of age. Active EAE was induced by injection of 0.05 mL emulsion of myelin basic protein (MBP) with complete Freund's adjuvant (CFA), containing 25 μg guinea pig MBP and 100 μg Mycobacterium butyricum (Difco Laboratories, Detroit, MI) into one hind footpad. Immunized rats were observed daily for clinical signs of EAE and scored as follows: 0, no symptoms; 1, loss of tail tonicity; 2, paresis; 3, hind limb paralysis, often accompanied by incontinence; and 4, death. Formalin-fixed brain slice sections were stained with hematoxylin-eosin and evaluated microscopically for perivascular and parenchymal infiltration. Compound was administered by gavage as a solution in sterile saline in a volume of 500 μL. […] Several different protocols were used to define the efficacy and timing requirements for potency.
Protocol 1: Compound was administered daily at 50 mg/kg beginning on Day 0 and continuing through Day 14, with MBP in CFA administered on Day 0 also. […] N=5 for all groups.

Data set [4] concerns EAE Rats. Description: EAE Lewis rat acute model, Protocol 2 (alternate-day oral dosing Day 0-14). The data set is classed as in vivo. As to conditions: for Effect on EAE Rats (≥Paresis/Total): CFA + MBP control 5/7. The procedure: as §1
Controls run in parallel included CFA only and MBP in CFA. N=4 for treatment groups. N=8 for controls.

Data set [5] concerns leukocyte migration across the blood-brain barrier. Description: Histology of brain slices from Protocol 1 EAE animals. The data set is classed as in vivo, Lewis rat. Conditions: 50 mg/kg daily dosing schedule. The procedure:
The activity of Example 2 in suppressing the inflammatory disease associated with EAE was tested using the Lewis rat acute model. Female Lewis rats were purchased from Harlan Sprague-Dawley (Indianapolis, IN) and were used at 8 to 10 weeks of age. Active EAE was induced by injection of 0.05 mL emulsion of myelin basic protein (MBP) with complete Freund's adjuvant (CFA), containing 25 μg guinea pig MBP and 100 μg Mycobacterium butyricum (Difco Laboratories, Detroit, MI) into one hind footpad. Immunized rats were observed daily for clinical signs of EAE and scored as follows: 0, no symptoms; 1, loss of tail tonicity; 2, paresis; 3, hind limb paralysis, often accompanied by incontinence; and 4, death. Formalin-fixed brain slice sections were stained with hematoxylin-eosin and evaluated microscopically for perivascular and parenchymal infiltration. Compound was administered by gavage as a solution in sterile saline in a volume of 500 μL. The dose of 50 mg/kg typically required 7.5 mg of compound per rat. Several different protocols were used to define the efficacy and timing requirements for potency.

For data set [6], the system named is Mycobacterium footpad edema. The experiment in a line: Mycobacterium footpad edema assay (MFE). The data set is classed as in vivo, Wistar rats. Conditions: all values of Table IV (2, 10, 50 mg/kg). The procedure:
The activity of Example 2 as a general inhibitor of inflammation was tested using the Mycobacterium footpad edema assay (MFE) in Wistar rats. Compound was administered daily by gavage at 2 mg/kg, 10 mg/kg, or 50 mg/kg.
Male outbred Wistar rats (110-125 g, Charles River Labs, Portage, Mich.) were used in this study. Rats were housed for a minimum of 1 week before use. Food and water were supplied ad libitum. Foot pad edema was induced following the method described by Martel R.R. and Klicius J., "Comparisons in rats of the antiinflammatory and gastric irritant effects of etodolac with several clinically effective antiinflammatory drugs", Agents and Actions, 1982;12:295. […] Swelling was assessed on the third day by subtracting the initial volume (determined immediately following the Mycobacterium injection) from the final volume of the treated paw. Paw volume was determined by mercury plethysmography. The percent inhibition of edema achieved in each compound-treated group was determined by comparison with swelling in the vehicle-treated group and the ID50 values were determined by regression analysis. Statistical significance between experimental groups was evaluated using a Student's t-test.

Data set [7] can be described thus: Plasma concentrations after oral dosing. Conditions: for Cmax: read-out: plasma concentration (Cmax). The data set is classed as in vivo, Wistar rats. As to the method:
The activity of Example 2 as a general inhibitor of inflammation was tested using the Mycobacterium footpad edema assay (MFE) in Wistar rats. Compound was administered daily by gavage at 2 mg/kg, 10 mg/kg, or 50 mg/kg. […] The bioavailability of this compound is therefore well in excess of the effective range of gelatinase A inhibition determined in the in vitro assays.

The subject of data set [8] is experimental allergic encephalomyelitis (EAE). Conditions: Gijbels et al.; dose dependent; cited from earlier work.

Each structure is given as a SMILES string. Where two headings read alike, the source gives them in different places.

For the compound `O=C(O)CCC(=NO)c1ccc2oc3ccccc3c2c1` [Example 2, 4-Dibenzofuran-2-yl-4-hydroximino-butyric acid], the figures for the IC50 in data set [1] and in data set [2] were 40 nM and greater than 100000 nM, respectively. In the data set with EAE Rats [3] (50 mg/kg daily, Day 0 through Day 14), the “average scores for the treated group” value was “substantially reduced”. Besides, in the data set with EAE Rats [3] (50 mg/kg daily, Day 0 through Day 14, N=5), the “percentage of animals responding (total inhibition or reduction of symptoms)” value came to 100%. For the same compound, the “Effect on EAE Rats (≥Paresis/Total)” value was 0/5 in the data set on EAE Rats [3] (CFA + Example 2 (no MBP), 50 mg/kg daily oral from Day 0); 1/5 in the data set on EAE Rats [3] (CFA + MBP + Example 2, 50 mg/kg daily oral from Day 0, CFA + MBP control 5/5); 0/4 with EAE Rats [4] (CFA + MBP + Example 2, 10 mg/kg alternate days); 0/4 with EAE Rats [4] (CFA + MBP + Example 2, 50 mg/kg alternate days). In addition, in the data set on EAE Rats [4] (Day 15, 10 or 50 mg/kg alternate days), the “significance (p) of decrease in disease severity” value is listed as no more than 0.01. In addition, the CNS inflammation result in data set [5] is reported as “little CNS inflammation”. Also, the cuff formation entry in data set [5] is “no cuff formation”. Also, in data set [5], the “leukocyte migration across the blood-brain barrier” value was “completely prevented”. Further, the “statistical significance of inhibition of the inflammatory response” value in data set [6] was “statistically significant”. Moreover, in data set [7] (2, 10, 50 mg/kg), the “Cmax and AUC(0-4) dose dependence” value is “increase proportionately with dose”. The Cmax in data set [7] (rat, plasma, po, 2-mg/kg dose) was found to be 4.62 µM; in data set [7] (rat, plasma, po, 10-mg/kg dose) it was 38.8 µM; in data set [7] (rat, plasma, po, 50-mg/kg dose), 163 µM. The Tmax in data set [7] (rat, plasma, po, post-treatment, read-out: time of peak plasma concentration) was 1 h. Moreover, the plasma concentration decline result in data set [7] (through the subsequent 4 hours after peak) is “declined mono-exponentially”.

Turning to `CNC(=O)[C@H](Cc1c[nH]c2ccccc12)NC(=O)[C@@H](CC(=O)NO)CC(C)C` [GM6001], the “effect on development or clinical expression of EAE” value in data set [8] is “suppressed the development or reversed the clinical expression of experimental allergic encephalomyelitis (EAE) in a dose dependent manner”.

The IC50 is the concentration needed to halve the response being measured.
